Each structure is given as a SMILES string.

The target in test [1] is T1, c-Met (cytoplasmic domain) (Homo sapiens, UniProt P08581).
T1 construct: 10 ng/mL c-Met (cytoplasmic domain, Invitrogen Corporation #PV3143); purchased Invitrogen Corporation PV3143
As to the kind of experiment: c-Met Kinase Assay (same methods as for ALK, with modifications). Type of test: biochemical. The settings on record: c-Met kinase inhibition, 1 μM ATP (Km level); read-out: cMet Activity. The method in brief: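 Wells were coated with 10 μg/mL phospholipase C-γ substrate in TBS, and reactions were started with 10 ng/mL c-Met cytoplasmic domain and run at 37° C for 15 minutes. Phosphorylated product was detected with Eu-N1-labeled PT66 antibody. IC50 values came from sigmoidal variable-slope fits of percent inhibition versus log compound concentration.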

Test [2] deals with T2, baculovirus-expressed ALK (Homo sapiens, UniProt Q9UM73).
T2 construct: host or cells: baculovirus expression system
As to the kind of experiment: ALK Kinase Assay (ELISA-type, time-resolved fluorescence). The settings on record: ALK kinase inhibition, 1 μM ATP (Km level); read-out: ALK Activity. In kind it is biochemical. The method in brief:
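Substrate coating: phospholipase C-γ, 10 μg/mL in TBS. Kinase step: 30 ng/ml ALK, 15 min, 37° C. Detection and analysis: Eu-N1 PT66 antibody, with IC50 fitted as a sigmoidal variable-slope dose-response curve.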

T1 sequence (P08581 956-1390 limits assumed): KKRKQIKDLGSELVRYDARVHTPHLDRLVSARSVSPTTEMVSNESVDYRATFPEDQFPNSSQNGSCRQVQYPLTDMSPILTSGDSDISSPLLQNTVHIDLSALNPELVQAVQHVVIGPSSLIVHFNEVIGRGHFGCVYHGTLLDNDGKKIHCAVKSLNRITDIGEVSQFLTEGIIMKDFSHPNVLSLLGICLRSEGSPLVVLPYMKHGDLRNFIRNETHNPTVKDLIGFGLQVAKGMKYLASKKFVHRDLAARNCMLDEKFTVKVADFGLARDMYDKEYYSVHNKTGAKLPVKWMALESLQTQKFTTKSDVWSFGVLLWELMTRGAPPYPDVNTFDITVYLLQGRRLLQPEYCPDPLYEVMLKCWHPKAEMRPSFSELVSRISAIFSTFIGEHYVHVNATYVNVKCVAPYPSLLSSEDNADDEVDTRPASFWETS
T2 sequence (Q9UM73 19-1620): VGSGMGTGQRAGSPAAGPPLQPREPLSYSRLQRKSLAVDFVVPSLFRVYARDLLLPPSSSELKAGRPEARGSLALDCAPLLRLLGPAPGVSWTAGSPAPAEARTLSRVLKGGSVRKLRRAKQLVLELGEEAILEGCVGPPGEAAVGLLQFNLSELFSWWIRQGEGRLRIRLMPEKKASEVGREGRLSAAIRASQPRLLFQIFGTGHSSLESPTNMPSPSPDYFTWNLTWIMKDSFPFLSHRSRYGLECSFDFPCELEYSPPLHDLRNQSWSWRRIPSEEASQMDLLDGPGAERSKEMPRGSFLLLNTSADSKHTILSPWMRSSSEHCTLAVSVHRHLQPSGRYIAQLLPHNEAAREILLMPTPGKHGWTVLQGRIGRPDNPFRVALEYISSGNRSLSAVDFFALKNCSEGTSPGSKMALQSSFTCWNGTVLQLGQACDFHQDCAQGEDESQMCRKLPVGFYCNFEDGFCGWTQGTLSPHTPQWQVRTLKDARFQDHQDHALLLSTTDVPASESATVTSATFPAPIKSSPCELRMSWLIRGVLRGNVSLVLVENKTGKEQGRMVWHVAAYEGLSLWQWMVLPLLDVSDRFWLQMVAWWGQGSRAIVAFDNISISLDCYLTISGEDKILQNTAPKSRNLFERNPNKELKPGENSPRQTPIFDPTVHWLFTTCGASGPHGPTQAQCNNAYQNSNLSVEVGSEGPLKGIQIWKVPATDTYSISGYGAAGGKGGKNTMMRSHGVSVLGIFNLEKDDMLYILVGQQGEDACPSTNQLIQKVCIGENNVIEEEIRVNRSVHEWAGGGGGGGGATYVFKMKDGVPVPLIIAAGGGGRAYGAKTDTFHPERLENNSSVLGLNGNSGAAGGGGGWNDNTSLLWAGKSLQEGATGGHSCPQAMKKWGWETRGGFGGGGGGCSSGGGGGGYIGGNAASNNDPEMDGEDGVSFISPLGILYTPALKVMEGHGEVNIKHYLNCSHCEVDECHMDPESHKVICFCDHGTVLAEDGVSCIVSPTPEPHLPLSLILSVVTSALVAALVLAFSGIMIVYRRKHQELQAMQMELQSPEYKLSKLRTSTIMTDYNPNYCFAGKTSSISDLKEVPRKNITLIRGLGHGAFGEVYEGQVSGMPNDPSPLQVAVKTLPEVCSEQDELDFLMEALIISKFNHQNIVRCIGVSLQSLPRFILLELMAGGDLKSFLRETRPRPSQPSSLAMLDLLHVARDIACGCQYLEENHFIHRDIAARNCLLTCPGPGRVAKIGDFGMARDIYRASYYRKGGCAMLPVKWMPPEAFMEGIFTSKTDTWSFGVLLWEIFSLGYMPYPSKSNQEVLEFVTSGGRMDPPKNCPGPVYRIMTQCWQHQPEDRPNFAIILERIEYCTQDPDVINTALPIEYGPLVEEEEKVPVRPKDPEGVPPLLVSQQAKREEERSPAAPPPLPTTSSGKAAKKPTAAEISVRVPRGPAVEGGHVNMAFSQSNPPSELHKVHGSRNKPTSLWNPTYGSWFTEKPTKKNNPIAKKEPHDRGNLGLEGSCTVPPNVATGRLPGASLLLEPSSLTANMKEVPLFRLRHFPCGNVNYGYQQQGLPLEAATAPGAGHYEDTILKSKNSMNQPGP

Take `COCCN1CCc2ccc(Nc3ncc(Cl)c(Nc4ccccc4C(=O)NC4CC4)n3)cc2CC1` [Example 344, 2-{5-Chloro-2-[3-(2-methoxy-ethyl)-2,3,4,5-tetrahydro-1H-benzo[d]azepin-7-ylamino]-pyrimidin-4-ylamino}-N-cyclopropyl-benzamide]: the IC50 in test [1] was 0.1 to 1 µM; in test [2], less than 0.1 µM.
The matching figures for `CC(=O)c1ccccc1Nc1nc(Nc2ccc3c(c2)CCCC(=O)N3C)ncc1Cl` [Example 351, 7-[4-(2-Acetyl-phenylamino)-5-chloro-pyrimidin-2-ylamino]-1-methyl-1,3,4,5-tetrahydro-benzo[b]azepin-2-one]: less than 0.1 µM and less than 0.1 µM.
The matching figures for `CNC(=O)c1cccc(Cl)c1Nc1nc(Nc2ccc3c(c2)CCCC(=O)N3C)ncc1Cl` [Example 352, 3-Chloro-2-[5-chloro-2-(1-methyl-2-oxo-2,3,4,5-tetrahydro-1H-benzo[b]azepin-7-ylamino)-pyrimidin-4-ylamino]-N-methyl-benzamide]: less than 0.1 µM and 1 to 10 µM.
The matching figures for `CN1C(=O)CCCc2cc(Nc3ncc(Cl)c(Nc4ccc(N5CCCCC5)cc4C(N)=O)n3)ccc21` [Example 354, 2-[5-Chloro-2-(1-methyl-2-oxo-2,3,4,5-tetrahydro-1H-benzo[b]azepin-7-ylamino)-pyrimidin-4-ylamino]-5-piperidin-1-yl-benzamide]: less than 0.1 µM and less than 0.1 µM.
With `CN1C(=O)CCCc2cc(Nc3ncc(Cl)c(Nc4ccc(N5CCOCC5)cc4C(N)=O)n3)ccc21` [Example 355, 2-[5-Chloro-2-(1-methyl-2-oxo-2,3,4,5-tetrahydro-1H-benzo[b]azepin-7-ylamino)pyrimidin-4-ylamino]-5-morpholin-4-yl-benzamide], the IC50 in test [1] is 0.1 to 1 µM; in test [2] it was less than 0.1 µM.
The matching figures for `CNC(=O)c1cccc(F)c1Nc1nc(Nc2ccc3c(c2)CCCC(=O)N3CCOC)ncc1Cl` [Example 356, 2-{5-Chloro-2-[1-(2-methoxy-ethyl)-2-oxo-2,3,4,5-tetrahydro-1H-benzo[b]azepin-7-ylamino]-pyrimidin-4-ylamino}-3-fluoro-N-methyl-benzamide]: less than 0.1 µM and less than 0.1 µM.
As to `CNC(=O)c1cccc(Cl)c1Nc1nc(Nc2ccc3c(c2)CCCC(=O)N3CCOC)ncc1Cl` [Example 357, 3-Chloro-2-{5-chloro-2-[1-(2-methoxy-ethyl)-2-oxo-2,3,4,5-tetrahydro-1H-benzo[b]azepin-7-ylamino]-pyrimidin-4-ylamino}-N-methyl-benzamide], the IC50 in test [1] was less than 0.1 µM; in test [2], 1 to 10 µM.
The matching figures for `CCN1C(=O)CCCc2ccc(Nc3ncc(Cl)c(Nc4c(F)cccc4C(=O)NC)n3)cc21` [Example 358, 2-[5-Chloro-2-(1-ethyl-2-oxo-2,3,4,5-tetrahydro-1H-benzo[b]azepin-8-ylamino)pyrimidin-4-ylamino]-3-fluoro-N-methyl-benzamide]: less than 0.1 µM and less than 0.1 µM.
The matching figures for `CCN1C(=O)CCCc2ccc(Nc3ncc(Br)c(Nc4c(F)cccc4C(=O)NC)n3)cc21` [Example 359, 2-[5-Bromo-2-(1-ethyl-2-oxo-2,3,4,5-tetrahydro-1H-benzo[b]azepin-8-ylamino)-pyrimidin-4-ylamino]-3-fluoro-N-methyl-benzamide]: less than 0.1 µM and less than 0.1 µM.
Take `CCN1C(=O)CCCc2ccc(Nc3ncc(Cl)c(Nc4c(C)cccc4C(=O)NC)n3)cc21` [Example 360, 2-[5-Chloro-2-(1-ethyl-2-oxo-2,3,4,5-tetrahydro-1H-benzo[b]azepin-8-ylamino)-pyrimidin-4-ylamino]-3,N-dimethyl-benzamide]: the IC50 in test [1] was less than 0.1 µM; in test [2], 1 to 10 µM.
The matching figures for `CNC(=O)c1cccc(C)c1Nc1nc(Nc2ccc3c(c2)N(CCOC)C(=O)CCC3)ncc1Cl` [Example 361, 2-{5-Chloro-2-[1-(2-methoxy-ethyl)-2-oxo-2,3,4,5-tetrahydro-1H-benzo[b]azepin-8-ylamino]-pyrimidin-4-ylamino}-3,N-dimethyl-benzamide]: less than 0.1 µM and 1 to 10 µM.
On to `CNC(=O)c1ccccc1Nc1nc(Nc2cc3c(cc2OC)CCN(CC(=O)N(C)C)CC3)ncc1Br` [Example 376, 2-[5-Bromo-2-(3-dimethylcarbamoylmethyl-8-methoxy-2,3,4,5-tetrahydro-1H-benzo[d]azepin-7-ylamino)-pyrimidin-4-ylamino]-N-methyl-benzamide], for which the values for the IC50 in test [1] and in test [2] were 1 to 10 µM and less than 0.1 µM, respectively.
The matching figures for `CC1(C)CCC(=O)Nc2ccc(Nc3ncc(Cl)c(N[C@@H]4CCCC[C@H]4NS(C)(=O)=O)n3)cc21` [Example 383, N-{(1R,2R)-2-[5-Chloro-2-(5,5-dimethyl-2-oxo-2,3,4,5-tetrahydro-1H-benzo[b]azepin-7-ylamino)-pyrimidin-4-ylamino]-cyclohexyl}-methanesulfonamide]: 1 to 10 µM and less than 0.1 µM.
The matching figures for `CNC(=O)c1ccccc1Nc1nc(Nc2ccc3c(c2)C(C)(C)CCC(=O)N3C)ncc1Cl` [Example 384, 2-[5-Chloro-2-(1,5,5-trimethyl-2-oxo-2,3,4,5-tetrahydro-1H-benzo[b]azepin-7-ylamino)-pyrimidin-4-ylamino]-N-methyl-benzamide]: less than 0.1 µM and less than 0.1 µM.
The matching figures for `CN1C(=O)CCC(C)(C)c2cc(Nc3ncc(Cl)c(N[C@@H]4CCCC[C@H]4NS(C)(=O)=O)n3)ccc21` [Example 385, N-{(1R,2R)-2-[5-Chloro-2-(1,5,5-trimethyl-2-oxo-2,3,4,5-tetrahydro-1H-benzo[b]azepin-7-ylamino)-pyrimidin-4-ylamino]-cyclohexyl}-methanesulfonamide]: 0.1 to 1 µM and less than 0.1 µM.
For `CCN1C(=O)CCC(C)(C)c2cc(Nc3ncc(Cl)c(Nc4ccccc4C(=O)NC)n3)ccc21` [Example 387, 2-[5-Chloro-2-(1-ethyl-5,5-dimethyl-2-oxo-2,3,4,5-tetrahydro-1H-benzo[b]azepin-7-ylamino)-pyrimidin-4-ylamino]-N-methyl-benzamide], the IC50 in test [1] and in test [2] was less than 0.1 µM in each case.
For `CCN1C(=O)CCC(C)(C)c2cc(Nc3ncc(Cl)c(N[C@@H]4CCCC[C@H]4NS(C)(=O)=O)n3)ccc21` [Example 388, N-{(1R,2R)-2-[5-Chloro-2-(1-ethyl-5,5-dimethyl-2-oxo-2,3,4,5-tetrahydro-1H-benzo[b]azepin-7-ylamino)-pyrimidin-4-ylamino]-cyclohexyl}-methanesulfonamide], the IC50 in test [1] is 1 to 10 µM; in test [2], less than 0.1 µM.
The matching figures for `CCN1C(=O)CCC(C)(C)c2cc(Nc3ncc(Cl)c(Nc4c(Cl)cccc4C(=O)NC)n3)ccc21` [Example 389, 3-Chloro-2-[5-chloro-2-(1-ethyl-5,5-dimethyl-2-oxo-2,3,4,5-tetrahydro-1H-benzo[b]azepin-7-ylamino)-pyrimidin-4-ylamino]-N-methyl-benzamide]: 0.1 to 1 µM and 0.1 to 1 µM.
For the compound `CCN1C(=O)CCC(C)(C)c2cc(Nc3ncc(Cl)c(Nc4ccc(N5CCOCC5)cc4OC)n3)ccc21` [Example 391, 7-[5-Chloro-4-(2-methoxy-4-morpholin-4-yl-phenylamino)-pyrimidin-2-ylamino]-1-ethyl-5,5-dimethyl-1,3,4,5-tetrahydro-benzo[b]azepin-2-one], the IC50 in test [1] was greater than 10 µM; in test [2], less than 0.1 µM.

The record behind these values is US8148391B2 (Cephalon, Inc., priority 2006, dated 2012).
